Converted amounts (≈) assume the structure as drawn.
Assays:
Assay type in all cases: functional
Jurkat = test: Cytotoxic activity against human JurkatE6.1 cell line was measured after 72 h using MTT assay; details: for EC50: Homo sapiens, Jurkat, 72 h, read-out: ED50 (the source's name)
A549 = test: Cytotoxic activity against human A549 cell line was measured after 72 hr using MTT assay; details: A549, 72 h, read-out: ED50 (the source's name)
L132 = test: Cytotoxic activity against human L132 cell line was measured after 72 hr using MTT assay; details: L132, 72 h, read-out: ED50 (the source's name)
PA-1 = test: Cytotoxic activity against human PA-1 cell line was measured after 72 hr using MTT assay; details: for EC50: Homo sapiens, PA-1, 72 h, read-out: ED50 (the source's name)
DU-145 = test: Cytotoxic activity against human DU145 cell line was measured after 72 hr using MTT assay; details: for EC50: Homo sapiens, DU-145, 72 h, read-out: ED50 (the source's name)
MOLT-4 = test: Cytotoxic activity against human MOLT-4 cell line was measured after 72 hr using MTT assay; details: for EC50: Homo sapiens, MOLT-4, 72 h, read-out: ED50 (the source's name)
CCRF-CEM = test: Cytotoxic activity against human CEM.CM3 cell line was measured after 72 hr using MTT assay; details: for EC50: Homo sapiens, CCRF-CEM, 72 h, read-out: ED50 (the source's name)
BRISTOL8 = test: Cytotoxic activity against human BRISTOL8 cell line was measured after 72 hr using MTT assay; details: for EC50: Homo sapiens, BRISTOL8, 72 h, read-out: ED50 (the source's name)
U-937 = test: Cytotoxic activity against human U937 cell line was measured after 72 hr using MTT assay; details: for EC50: Homo sapiens, U-937, 72 h, read-out: ED50 (the source's name)

Compound | EC50 (Jurkat) [µg/mL] | EC50 (A549) [µg/mL] | EC50 (L132) [µg/mL] | EC50 (PA-1) [µg/mL] | EC50 (DU-145) [µg/mL] | EC50 (MOLT-4) [µg/mL] | EC50 (CCRF-CEM) [µg/mL] | EC50 (BRISTOL8) [µg/mL] | EC50 (U-937) [µg/mL] | ED50 (Jurkat) [µg/mL] | ED50 (PA-1) [µg/mL] | ED50 (DU-145) [µg/mL] | ED50 (MOLT-4) [µg/mL] | ED50 (CCRF-CEM) [µg/mL] | ED50 (BRISTOL8) [µg/mL] | ED50 (U-937) [µg/mL]
CC(C)[C@@H]1CC[C@]2(C(=O)O)CC[C@]3(C)C(CCC4[C@@]5(C)CC/C(=N\Nc6ccccc6)C(C)(C)C5CC[C@]43C)C12 (some centres not stated) | 6.3 (≈ 11.5 µM) | > 10 | 7.4 (≈ 13.5 µM) | 0.4 (≈ 0.731 µM) | 0.6 (≈ 1.1 µM) | 1.4 (≈ 2.56 µM) | 2.9 (≈ 5.3 µM) | 3.7 (≈ 6.77 µM) | 2.2 (≈ 4.02 µM) |  |  |  |  |  |  | 
CC(C)[C@@H]1CC[C@]2(C(=O)O)CC[C@]3(C)C(CCC4[C@@]5(C)CC/C(=N\O)C(C)(C)C5CC[C@]43C)C12 (some centres not stated) | 1.8 (≈ 3.82 µM) | > 1.8 | 1.5 (≈ 3.18 µM) | 0.7 (≈ 1.48 µM) | 1.1 (≈ 2.33 µM) | 2.1 (≈ 4.45 µM) | 2.6 (≈ 5.51 µM) | 1.6 (≈ 3.39 µM) | 2.4 (≈ 5.09 µM) |  |  |  |  |  |  | 
C=C(C)[C@@H]1CC[C@]2(C(=O)O)CC[C@]3(C)C(CCC4[C@@]5(C)CC[C@H](OC(=O)C(C)C(=O)OC)C(C)(C)C5CC[C@]43C)C12 (some centres not stated) | 0.9 (≈ 1.58 µM) | > 10 | > 10 | 3.6 (≈ 6.31 µM) | 1.6 (≈ 2.8 µM) | 1.2 (≈ 2.1 µM) | 1.6 (≈ 2.8 µM) | 1.7 (≈ 2.98 µM) | 1.1 (≈ 1.93 µM) |  |  |  |  |  |  | 
C=C(C)[C@@H]1CC[C@]2(C(=O)O)CC[C@]3(C)C(CCC4[C@@]5(C)CC[C@H](OC(C)=O)C(C)(C)C5CC[C@]43C)C12 (some centres not stated) | 1.8 (≈ 3.61 µM) | > 10 | > 10 | 4.1 (≈ 8.22 µM) | 2.6 (≈ 5.21 µM) | 3.1 (≈ 6.22 µM) |  | 4.8 (≈ 9.62 µM) | 1.6 (≈ 3.21 µM) |  |  |  |  |  |  | 
C=C(C)[C@@H]1CC[C@]2(C(=O)OCC(=O)O)CC[C@]3(C)C(CCC4[C@@]5(C)CC[C@H](O)C(C)(C)C5CC[C@]43C)C12 (some centres not stated) | > 10 | > 10 | > 10 | 1.3 (≈ 2.53 µM) | > 10 | 3.1 (≈ 6.02 µM) | > 10 |  | > 10 |  |  |  |  |  |  | 
C=C(C)[C@@H]1CC[C@]2(C(=O)O)CC[C@]3(C)C(CCC4[C@@]5(C)CC[C@H](OC(=O)CC)C(C)(C)C5CC[C@]43C)C12 (some centres not stated) | 2.1 (≈ 4.1 µM) | > 10 | > 10 | 3.7 (≈ 7.22 µM) | 4.2 (≈ 8.19 µM) | 3.3 (≈ 6.44 µM) | 5.5 (≈ 10.7 µM) | 2.1 (≈ 4.1 µM) | 6.8 (≈ 13.3 µM) |  |  |  |  |  |  | 
CC(C)[C@@H]1CC[C@]2(C(=O)O)CC[C@]3(C)C(CCC4[C@@]5(C)CC(Br)C(=O)C(C)(C)C5CC[C@]43C)C12 (some centres not stated) | 0.7 (≈ 1.31 µM) | > 10 | > 10 | 0.5 (≈ 0.934 µM) | 3 (≈ 5.6 µM) | 0.4 (≈ 0.747 µM) | 0.3 (≈ 0.56 µM) | 2.9 (≈ 5.41 µM) | 1.3 (≈ 2.43 µM) |  |  |  |  |  |  | 
CC1(C)C(=O)C(Br)C[C@@]2(C)C1CC[C@]1(C)C2CCC2C3[C@H](C(C)(Br)CBr)CC[C@]3(C(=O)O)CC[C@]21C (some centres not stated) | 2.1 (≈ 3.03 µM) | > 10 | > 10 | 5.1 (≈ 7.36 µM) | 3.6 (≈ 5.19 µM) | 5.9 (≈ 8.51 µM) | 2.8 (≈ 4.04 µM) | 3.8 (≈ 5.48 µM) | 2.1 (≈ 3.03 µM) |  |  |  |  |  |  | 
C=C(C)[C@@H]1CC[C@]2(C(=O)O)CC[C@]3(C)C(CCC4[C@@]5(C)CC[C@H](OC(=O)C(C)(C)C)C(C)(C)C5CC[C@]43C)C12 (some centres not stated) | > 10 | > 10 | > 10 | 0.7 (≈ 1.29 µM) | 1 (≈ 1.85 µM) | 2.4 (≈ 4.44 µM) | > 10 | > 10 | > 10 |  |  |  |  |  |  | 
CC(=O)O[C@H]1C(Br)C[C@@]2(C)C(CC[C@]3(C)C2CCC2C4[C@H](C(C)(Br)CBr)CC[C@]4(C(=O)O)CC[C@]23C)C1(C)C (some centres not stated) | 6.9 (≈ 9.36 µM) | > 10 | > 10 | 2.4 (≈ 3.25 µM) | 2.5 (≈ 3.39 µM) | 2.8 (≈ 3.8 µM) | 2.7 (≈ 3.66 µM) | 1.4 (≈ 1.9 µM) | 0.3 (≈ 0.407 µM) |  |  |  |  |  |  | 
COC(=O)COC(=O)[C@]12CC[C@@H](C(C)C)C1C1CCC3[C@@]4(C)CC[C@H](O)C(C)(C)C4CC[C@@]3(C)[C@]1(C)CC2 (some centres not stated) | 5.5 (≈ 10.4 µM) | > 10 | > 10 | 0.5 (≈ 0.942 µM) | > 10 | 2.8 (≈ 5.28 µM) | 2.5 (≈ 4.71 µM) | 3.4 (≈ 6.41 µM) | > 10 |  |  |  |  |  |  | 
C=C(C)[C@@H]1CC[C@]2(C(=O)O)CC[C@]3(C)C(CCC4[C@@]5(C)CC/C(=N\Nc6ccccc6)C(C)(C)C5CC[C@]43C)C12 (some centres not stated) | 2.6 (≈ 4.77 µM) | > 10 | 4.3 (≈ 7.89 µM) | 5.3 (≈ 9.73 µM) | 2.4 (≈ 4.41 µM) | 3.4 (≈ 6.24 µM) | 3.1 (≈ 5.69 µM) | 3.4 (≈ 6.24 µM) | 2.4 (≈ 4.41 µM) |  |  |  |  |  |  | 
C=C(C)[C@@H]1CC[C@]2(C(=O)O)CC[C@]3(C)C(CCC4[C@@]5(C)CC/C(=N\OS(=O)(=O)c6ccc(C)cc6)C(C)(C)C5CC[C@]43C)C12 (some centres not stated) | 4.9 (≈ 7.85 µM) | > 10 | > 10 | 1.8 (≈ 2.89 µM) | 2.8 (≈ 4.49 µM) | 2.7 (≈ 4.33 µM) | 1.5 (≈ 2.4 µM) | 3.3 (≈ 5.29 µM) | 4.8 (≈ 7.69 µM) |  |  |  |  |  |  | 
C=C(C)[C@@H]1CC[C@]2(C(=O)OCC(=O)OC)CC[C@]3(C)C(CCC4[C@@]5(C)CCC(=N)C(C)(C)C5CC[C@]43C)C12 (some centres not stated) | 0.5 (≈ 0.951 µM) | > 10 | > 10 | 6.5 (≈ 12.4 µM) | 5.5 (≈ 10.5 µM) | 1.7 (≈ 3.23 µM) | 1.4 (≈ 2.66 µM) | 1.4 (≈ 2.66 µM) | 1.7 (≈ 3.23 µM) |  |  |  |  |  |  | 
COC(=O)C(C)C(=O)O[C@H]1CC[C@@]2(C)C(CC[C@]3(C)C2CCC2C4[C@H](C(C)C)CC[C@]4(C(=O)O)CC[C@]23C)C1(C)C (some centres not stated) | 3.8 (≈ 6.63 µM) | 2.1 (≈ 3.67 µM) | 7.7 (≈ 13.4 µM) | 1.3 (≈ 2.27 µM) | 1 (≈ 1.75 µM) | 2.8 (≈ 4.89 µM) | 3.1 (≈ 5.41 µM) | 2.1 (≈ 3.67 µM) | 4 (≈ 6.98 µM) |  |  |  |  |  |  | 
CC(=O)O[C@H]1CC[C@@]2(C)C(CC[C@]3(C)C2CCC2C4[C@H](C(C)C)CC[C@]4(C(=O)O)CC[C@]23C)C1(C)C (some centres not stated) | 1.6 (≈ 3.2 µM) | 2.3 (≈ 4.59 µM) | 2.9 (≈ 5.79 µM) | 0.8 (≈ 1.6 µM) | 0.9 (≈ 1.8 µM) | 1.1 (≈ 2.2 µM) | 1 (≈ 2 µM) | 3.4 (≈ 6.79 µM) | 1.8 (≈ 3.59 µM) |  |  |  |  |  |  | 
COC(=O)COC(=O)[C@]12CC[C@@H](C(C)(Br)CBr)C1C1CCC3[C@@]4(C)CC(Br)C(=O)C(C)(C)C4CC[C@@]3(C)[C@]1(C)CC2 (some centres not stated) | 1.1 (≈ 1.44 µM) | > 10 | > 10 | 2.5 (≈ 3.27 µM) | 4.5 (≈ 5.88 µM) | 1.3 (≈ 1.7 µM) | 1.2 (≈ 1.57 µM) | 1.9 (≈ 2.48 µM) | 0.7 (≈ 0.914 µM) |  |  |  |  |  |  | 
CC(Br)(CBr)[C@@H]1CC[C@]2(C(=O)O)CC[C@]3(C)C(CCC4[C@@]5(C)CC(Br)[C@H](O)C(C)(C)C5CC[C@]43C)C12 (some centres not stated) | > 10 | > 10 | > 10 | 6 (≈ 8.63 µM) | > 10 | 3.6 (≈ 5.18 µM) | 6.8 (≈ 9.78 µM) | 7 (≈ 10.1 µM) | > 10 |  |  |  |  |  |  | 
C=C(C)[C@@H]1CC[C@]2(C(=O)OCC(=O)OC)CC[C@]3(C)C(CCC4[C@@]5(C)CC[C@H](O)C(C)(C)C5CC[C@]43C)C12 (stereo in doubt; 4) |  |  |  |  |  |  |  |  |  | 3.1 (≈ 5.86 µM) | 3.1 (≈ 5.86 µM) | 1.9 (≈ 3.59 µM) | 2.9 (≈ 5.48 µM) | 5.9 (≈ 11.2 µM) | 7.4 (≈ 14 µM) | 5.4 (≈ 10.2 µM)

From ChEMBL document CHEMBL1138817, “Synthesis and cytotoxic activity of 3-O-acyl/3-hydrazine /2-bromo/20,29-dibromo betulinic acid derivatives” (2004)
